Data: patent EP0737689A1, “NOVEL 6-SUBSTITUTED OXA- OR […]” (TEIKOKU HORMONE MFG. CO., LTD., priority 1993, dated 1995)

Columns and labels:
[1] = biological target: T1, aromatase (Homo sapiens, UniProt P11511); test: Assay of aromatase inhibition action (in vitro), 3H2O release from [1β-3H]androstenedione; assay type: biochemical; settings: freeze dried human placental microsomes, 2 µM [1β-3H]androstenedione, 180 µM NADPH, pH 7.5, 37°C, 20 minutes
T1 construct: Human placental microsomes (ones subjected to centrifugation at 105,000 X g for 60 minutes) were prepared according to the method of Ryan; from tissue; host or cells: human placenta (microsomal fraction)
T1 sequence (P11511 1-503): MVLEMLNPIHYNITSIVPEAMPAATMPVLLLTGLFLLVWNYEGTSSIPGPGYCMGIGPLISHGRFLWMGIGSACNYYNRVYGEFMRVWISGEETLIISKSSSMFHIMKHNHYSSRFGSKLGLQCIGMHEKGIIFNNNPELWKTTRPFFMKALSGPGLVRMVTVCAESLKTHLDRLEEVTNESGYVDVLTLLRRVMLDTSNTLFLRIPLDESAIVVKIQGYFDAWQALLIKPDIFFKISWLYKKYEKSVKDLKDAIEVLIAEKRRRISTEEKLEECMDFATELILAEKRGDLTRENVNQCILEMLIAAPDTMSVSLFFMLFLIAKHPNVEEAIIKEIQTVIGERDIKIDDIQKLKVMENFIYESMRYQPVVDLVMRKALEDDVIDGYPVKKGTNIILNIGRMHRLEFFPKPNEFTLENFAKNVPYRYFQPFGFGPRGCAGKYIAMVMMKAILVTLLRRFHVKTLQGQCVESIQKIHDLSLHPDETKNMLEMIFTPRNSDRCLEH
Method: Human placental microsomes (ones subjected to centrifugation at 105,000 X g for 60 minutes) were prepared according to the method of Ryan (The Journal of Biological Chemistry 234, 268-272, 1959). The microsomes were washed twice with 0.5 mM dithiothreitol solution, freeze dried, and stored at -20°C until use.
An aromatase inhibition action was assayed according to the method developed by Tompson and Siiteri (The Journal of Biological Chemistry 249, 5373-5378, 1974). Namely, the method comprises quantitatively determining ^3H2O released when [1β-^3H]androstenedione is aromatized. The experiment, when the enzyme was used, was conducted in 67 mM phosphate buffer (pH 7.5) so that the amount of the final incubation solution could be 0.5 ml. The incubation solution contains 180 µM of NADPH, 2 µM of [1β-^3H]androstenedione, 150 µg of freeze dried human placental microsomes, 25 µl of methanol and a test compound at various concentrations. Incubation was conducted in the air at 37°C for 20 minutes, 3 ml of chloroform was added to discontinue the reaction, and then the mixture was stirred for 40 seconds. The mixture was then centrifuged at 700 X g for 10 minutes, 0.3 ml of the aqueous solution was sampled from the supernatant, the scintillation mixture was added, and the amount of ^3H2O formed was measured.

[2] = biological target: T2, aromatase (Rattus norvegicus, UniProt P22443); test: Assay of aromatase inhibition action (in vivo), inhibition of DHEAS-induced cornification of the vaginal smear; settings: orally once a day for 4 days, hypophysectomized mature female rats, 16 mg/kg DHEAS, cornification relative to solvent administration group
T2 construct: mature female rats after one week from hypophysectomy were used; from tissue; host or cells: whole animal (hypophysectomised mature female rats)
T2 sequence (P22443 1-508): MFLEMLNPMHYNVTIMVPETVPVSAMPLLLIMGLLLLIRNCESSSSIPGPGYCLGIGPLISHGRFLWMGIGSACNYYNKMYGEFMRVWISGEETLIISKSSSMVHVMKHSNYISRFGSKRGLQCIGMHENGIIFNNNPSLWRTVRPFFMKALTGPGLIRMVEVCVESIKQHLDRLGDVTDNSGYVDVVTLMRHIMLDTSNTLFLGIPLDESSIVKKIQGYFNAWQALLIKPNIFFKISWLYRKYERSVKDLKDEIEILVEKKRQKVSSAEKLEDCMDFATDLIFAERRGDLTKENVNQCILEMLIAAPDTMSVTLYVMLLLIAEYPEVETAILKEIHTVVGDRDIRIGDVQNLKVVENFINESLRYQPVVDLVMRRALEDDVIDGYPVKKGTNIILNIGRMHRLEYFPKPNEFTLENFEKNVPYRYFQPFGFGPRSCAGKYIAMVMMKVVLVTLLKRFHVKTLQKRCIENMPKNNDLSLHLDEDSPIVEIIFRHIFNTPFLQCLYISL
Method: An aromatase inhibition action was assayed according to the method developed by G.H.Deckers and A.H.W.M.Schuurs (Journal of Steroid Biochemistry 32, 625-631, 1989).
Namely, mature female rats after one week from hypophysectomy were used with one group of 8 to 10 animals. Either 16 mg/kg of dehydroepiandrosterone sulfate (DHEAS) and 5 ml/kg of a solvent (physiological saline containing 2 % polysorbate 80), or DHEAS and a test compound suspended in the solvent were orally administered once a day for successive 4 days. For 6 days from the next day of start of the administration, the vaginal smear was sampled, and observed under a microscope after being stained with Giemsa staining solution. Cornification of the vaginal smear due to DHEAS was observed from 3 days after the initial administration, and its action disappeared 6 days thereafter. Therefore, the cornification smear number was expressed as the total of from the third day to the fifth day from the start of administration. An cornification inhibition action by the test compound was expressed as a rate to cornification in the solvent administration group.
Since cornification of the vaginal smear is caused by estrogens biosynthetically produced from DHEAS by aromatase, inhibition of the cornification is observed when aromatase is inhibited.

SMILES: CS[C@@H]1C[C@H]2[C@@H]3CCOC[C@@]3(C)CC[C@@H]2[C@@]2(C)C=CC(=O)C=C12 [Example 10, 6β-(methylthio)-D-homo-17-oxaandrosta-1,4-dien-3-one]
- IC50 [1]: 0.8 µM

SMILES: C[C@]12C=CC(=O)C=C1[C@@H](SC#N)C[C@@H]1[C@@H]2CC[C@]2(C)C(=O)OCC[C@@H]12 [Example 13 (6α), 6α-thiocyanato-D-homo-17-oxaandrosta-1,4-diene-3,17a-dione]
- Inhibition rate (%) ([2]; dose 5 mg/kg/day): 81.3%

SMILES: CC(=O)S[C@H]1C[C@@H]2[C@H](CC[C@]3(C)C(=O)OCC[C@@H]23)[C@@]2(C)C=CC(=O)C=C12 [Example 15, 6α-(acetylthio)-D-homo-17-oxaandrosta-1,4-diene-3,17a-dione]
- Inhibition rate (%) ([2]; dose 2 mg/kg/day): 90.9%
- IC50 [1]: 1.6 µM

SMILES: C[C@]12CC[C@H]3[C@@H](C[C@H](N=[N+]=[N-])C4=CC(=O)C=C[C@@]43C)[C@@H]1CCOC2 [Example 17, 6α-azido-D-homo-17-oxaandrosta-1,4-dien-3-one]
- Inhibition rate (%) ([2]; dose 5 mg/kg/day): 100%

SMILES: CC(=O)S[C@H]1C[C@H]2[C@@H]3CCOC[C@@]3(C)CC[C@@H]2[C@@]2(C)C=CC(=O)C=C12 [Example 19, 6α-(acetylthio)-D-homo-17-oxaandrosta-1,4-dien-3-one]
- Inhibition rate (%) ([2]; dose 5 mg/kg/day): 72.3%

SMILES: CO[C@@H]1C[C@@H]2[C@H](CC[C@]3(C)C(=O)OCC[C@@H]23)[C@@]2(C)C=CC(=O)C=C12 [Example 31, 6β-methoxy-D-homo-17-oxaandrosta-1,4-diene-3,17a-dione]
- Inhibition rate (%) ([2]; dose 5 mg/kg/day): 100%
